Reference: patent US9346754B2, “Method of treating advanced non-alcoholic steatohepatitis” (priority 2014, dated 2016)

How the values were obtained:
Format in all cases: in vivo, C57BL/6 mice
[1] = system: STAM Model of Advanced Non-Alcoholic Steatohepatitis; experiment: HE staining and NAFLD Activity Score (NAS) in STAM mice; set-up: key to NAS (NAFLD Activity Score): NAS scored per Kleiner criteria (Hepatology 2005); details: for NAS (NAFLD Activity Score): mean ± SD; for Number of mice with Lobular inflammation score 0: score 0 = No foci; for Number of mice with Steatosis score 1: score 1 = 5-33%; for Number of mice with Lobular inflammation score 1: score 1 = <2 foci/200x; for Number of mice with Hepatocyte ballooning score 1: score 1 = Few balloon cells; for Number of mice with Lobular inflammation score 2: score 2 = 2-4 foci/200x; for Number of mice with Steatosis score 2: score 2 = >33-66%; for Number of mice with Hepatocyte ballooning score 2: score 2 = Many cells/prominent ballooning
Procedure: STAM™ is a useful model for advanced non-alcoholic steatohepatitis (advanced NASH), symptoms thereof, and related liver disorders, created by the combination of chemical and dietary interventions in C57BL/6 mice. In this example, after inducing NASH, it was allowed to reach an advanced stage, and the mice were treated at 8-12 weeks. […] Vehicle, MN-001, and Telmisartan were administered by oral route in a volume of 10 mL/kg. […] For HE staining, sections were cut from paraffin blocks of liver tissue prefixed in Bouin's solution and stained with Lillie-Mayer's Hematoxylin (Muto Pure Chemicals, Japan) and eosin solution (Wako Pure Chemical Industries). NAFLD Activity score (NAS) was calculated according to the criteria of Kleiner (Kleiner D E. et al., Hepatology, 2005; 41:1313). To visualize collagen deposition, Bouin's fixed liver sections were stained using picro-Sirius red solution (Waldeck, Germany). […] P values<0.05 were considered statistically significant. […] Results were expressed as mean±SD. Ten NASH mice were orally administered vehicle supplemented with MN-001 at a dose of 10 mg/kg once daily from 8 to 12 weeks of age. Ten NASH mice were orally administered vehicle supplemented with MN-001 at a dose of 30 mg/kg once daily from 8 to 12 weeks of age. Ten NASH mice were orally administered vehicle supplemented with MN-001 at a dose of 100 mg/kg once daily from 8 to 12 weeks of age. Ten NASH mice were orally administered pure water supplemented with Telmisartan at a dose of 10 mg/kg once daily from 8 to 12 weeks of age.

[2] = system: STAM Model of Advanced Non-Alcoholic Steatohepatitis; experiment: F4/80 immunostaining, percentage of inflammation area in STAM mice; details: for F4/80-positive area (inflammation area): mean ± SD
Procedure: (§1) For immunohistochemistry, sections were cut from frozen liver tissues embedded in Tissue-Tek O.C.T. compound and fixed in acetone. Endogenous peroxidase activity was blocked using 0.03% H2O2 for 5 minutes, followed by incubation with Block Ace (Dainippon Sumitomo Pharma, Japan) for 10 minutes. The sections were incubated with a 200-fold dilution of anti-α-SMA (Epitomics, USA) or anti-F4/80 antibody (BMA Biomedicals, Switzerland) 1 hour at room temperature. […] For quantitative analysis of fibrosis area, inflammation area, and semi-quantification of α-SMA, bright field images of Sirius red-stained, F4/80- and α-SMA-immunostained sections were captured around the central vein using a digital camera (DFC280: Leica Microsystems, Germany) at 200-fold magnification, and the positive areas in 5 fields/section were measured using ImageJ software (National Institute of Health, USA). […] P values<0.05 were considered statistically significant. […] Results were expressed as mean±SD.

[3] = system: STAM Model of Advanced Non-Alcoholic Steatohepatitis; experiment: Alpha-SMA immunostaining, α-SMA-positive area in STAM mice; details: for Alpha-SMA-positive area: mean ± SD
Procedure: as §1

TIMP-1 mRNA = experiment: Liver gene expression by quantitative RT-PCR: TIMP-1; details: 10 mg/kg oral once daily, 8 to 12 weeks of age (MN-001-low; Telmisartan)
Procedure: (§2) Total RNA was extracted from liver samples using RNAiso (Takara Bio, Japan) according to the manufacturer's instructions. One μg of RNA was reverse-transcribed using a reaction mixture containing 4.4 mM MgCl2 (F. Hoffmann-La Roche, Switzerland), 40 U RNase inhibitor (Toyobo, Japan), 0.5 mM dNTP (Promega, USA), 6.28 μM random hexamer (Promega), 5× first strand buffer (Promega), 10 mM dithiothreitol (Invitrogen, USA) and 200 U MMLV-RT (Invitrogen) in a final volume of 20 μL. The reaction was carried out for 1 hour at 37° C., followed by 5 minutes at 99° C. Real-time PCR was performed using real-time PCR DICE and SYBR premix Taq (Takara Bio). To calculate the relative mRNA expression level, the expression of each gene was normalized to that of reference gene 36B4 (gene symbol: Rp1p0). Information of PCR-primer sets are described in Table 1. [table] […] P values<0.05 were considered statistically significant. […] Results were expressed as mean±SD.

Collagen Type 1 mRNA = experiment: Liver gene expression by quantitative RT-PCR: Collagen Type 1; details: 100 mg/kg oral once daily, 8 to 12 weeks of age (MN-001-high)
Procedure: as §2

Alpha-SMA mRNA = experiment: Liver gene expression by quantitative RT-PCR: Alpha-SMA; details: any doses of MN-001 (10, 30, 100 mg/kg oral once daily, 8 to 12 weeks of age)
Procedure: as §2

Five-Lipoxygenase mRNA = experiment: Liver gene expression by quantitative RT-PCR: Five-Lipoxygenase
Procedure: as §2

[4] = Liver weight and liver-to-body weight ratio in STAM mice; details: any doses of MN-001 (10, 30, 100 mg/kg oral once daily)
From the text: Mice in all groups will be sacrificed for the following assays at 12 weeks of age. Individual liver weight will be measured, and liver-to-body weight ratio will be calculated. Liver hydroxyproline will be quantified by a hydrolysis method. Histopathological analyses of liver sections (according to routine methods) HE staining (to estimate NAFLD Activity score), Sirius-red staining (to estimate the percentage of fibrosis area). F4/80 immunostaining (to estimate the percentage of inflammation area), Alpha-SMA immunostaining (to estimate the percentage of a-SMA positive area) are performed. Gene expression assays using total RNA from the liver Real-time RT-PCR analysis will be performed for TIMP-1, Collagen Type 1, α-SMA, 5-lipoxygenase, FLAP and LTC4 synthase are also performed. Statistical tests will be performed using Bonferroni Multiple Comparison Test. P values<0.05 will be considered statistically significant. […] P values<0.05 were considered statistically significant. […] Results were expressed as mean±SD.

[5] = all doses of MN-001 (10, 30, 100 mg/kg oral once daily, 8 to 12 weeks of age)
[6] = high dose, 100 mg/kg oral once daily, 8 to 12 weeks of age
[7] = 10 mg/kg oral once daily, 8 to 12 weeks of age (MN-001-low n=10; Telmisartan n=9)
[8] = 30 mg/kg oral once daily, 8 to 12 weeks of age (MN-001-middle, n=10)
[9] = 100 mg/kg oral once daily, 8 to 12 weeks of age (MN-001-high, n=10)
[10] = middle dose, 30 mg/kg oral once daily, 8 to 12 weeks of age
[11] = 10 mg/kg oral once daily, 8 to 12 weeks of age (MN-001-low; Telmisartan)
[12] = 30 mg/kg oral once daily, 8 to 12 weeks of age (MN-001-middle)
[13] = 100 mg/kg oral once daily, 8 to 12 weeks of age (MN-001-high)

SMILES: CCCc1c(SCCCOc2ccc(C(C)=O)c(OCCCC(=O)O)c2CCC)ccc(C(C)=O)c1O [MN-001]
- Hepatocellular ballooning and inflammatory cell infiltration in HE-stained liver sections [1, 5]: marked improvements
- NAS compared with the Vehicle group [1, 5]: significantly decreased
- Ballooning score [1, 6]: significantly reduced
- NAS compared with the Vehicle group [1, 6]: significantly decreased
- NAS (NAFLD Activity Score) [1, 7]: 3.6 ± 1.4
- NAS (NAFLD Activity Score) [1, 8]: 4.0 ± 0.9
- NAS (NAFLD Activity Score) [1, 9]: 3.1 ± 0.7
- Ballooning score [1, 10]: significantly reduced
- NAS compared with the Vehicle group [1, 10]: significantly decreased
- Number of mice with Steatosis score 0 ([1]; score 0 = <5%, 10 mg/kg oral once daily, 8 to 12 weeks of age (MN-001-low n=10; Telmisartan n=9)): 3
- Number of mice with Lobular inflammation score 0 [1, 7]: 2
- Number of mice with Lobular inflammation score 0 [1, 8]: 1
- Number of mice with Lobular inflammation score 0 [1, 9]: 4
- Number of mice with Steatosis score 1 [1, 7]: 6
- Number of mice with Steatosis score 1 [1, 8]: 7
- Number of mice with Steatosis score 1 [1, 9]: 9
- Number of mice with Lobular inflammation score 1 [1, 7]: 2
- Number of mice with Lobular inflammation score 1 [1, 8]: 6
- Number of mice with Lobular inflammation score 1 [1, 9]: 5
- Number of mice with Hepatocyte ballooning score 1 [1, 7]: 6
- Number of mice with Hepatocyte ballooning score 1 [1, 8]: 5
- Number of mice with Hepatocyte ballooning score 1 [1, 9]: 7
- Number of mice with Lobular inflammation score 2 [1, 7]: 6
- Number of mice with Lobular inflammation score 2 [1, 8]: 3
- Number of mice with Lobular inflammation score 2 [1, 9]: 1
- Number of mice with Steatosis score 2 [1, 7]: 1
- Number of mice with Steatosis score 2 [1, 8]: 3
- Number of mice with Steatosis score 2 [1, 9]: 1
- Number of mice with Hepatocyte ballooning score 2 [1, 7]: 4
- Number of mice with Hepatocyte ballooning score 2 [1, 8]: 5
- Number of mice with Hepatocyte ballooning score 2 [1, 9]: 3
- Inflammation area compared with the Vehicle group ([2]; any doses of MN-001 (10, 30, 100 mg/kg oral once daily, 8 to 12 weeks of age)): no significant differences
- F4/80-positive area (inflammation area) [2, 7]: 6.47 ± 2.67%
- F4/80-positive area (inflammation area) [2, 8]: 6.36 ± 1.59%
- F4/80-positive area (inflammation area) [2, 9]: 5.14 ± 0.89%
- α-SMA-positive area compared with the Vehicle group [3, 11]: significantly decreased
- α-SMA-positive area compared with the Vehicle group [3, 12]: no significant difference
- α-SMA-positive area compared with the Vehicle group [3, 13]: significantly decreased
- Alpha-SMA-positive area [3, 7]: 0.45 ± 0.11%
- Alpha-SMA-positive area [3, 8]: 0.76 ± 0.19%
- Alpha-SMA-positive area [3, 9]: 0.48 ± 0.21%
- TIMP-1 mRNA expression levels compared with the Vehicle group (TIMP-1 mRNA): significantly down-regulated
- Collagen Type 1 mRNA expression levels compared with the Vehicle group (Collagen Type 1 mRNA): tended to decrease
- α-SMA mRNA expression levels compared with the Vehicle group (Alpha-SMA mRNA): no significant differences
- Five-Lipoxygenase mRNA expression levels compared with the Vehicle group (Five-Lipoxygenase mRNA; [11]): no significant differences
- Five-Lipoxygenase mRNA expression levels compared with the Vehicle group (Five-Lipoxygenase mRNA; [12]): no significant differences
- Five-Lipoxygenase mRNA expression levels compared with the Vehicle group (Five-Lipoxygenase mRNA; [13]): tended to decrease
- Mean liver weight compared with the Vehicle group [4]: no significant differences
- Mean liver-to-body weight ratio compared with the Vehicle group [4]: no significant differences
